“Also recorded” adds a separate entry of the source.
What was measured:
[1] = system: NL5901 strain expressing α-synuclein in muscle cells; experiment: Parkinson's disease model: mobility of NL5901 strain; format: in vivo, C. elegans; details: 1 μg/ml
From the text: We have studied the anatomical location of sul-2 expression from an extrachromosomal array and in single-copy insertion transgenic strains. […] There is no detectable expression in the germline in any transgenic strains (FIG. 2n and FIG. 10, 11a-b). ASE neurons are responsible for the attractive response of Na+ and Cl−, among others. Defects in odour sensing affect longevity. Therefore, we tested the ability of sul-2 mutants to respond to Cl− or Na+ and found no differences compared to wild type animals (FIG. 11c-d). Furthermore, sul-2 mutation increases the longevity of daf-10(m79), a long-lived mutant defective in sensory cilia formation25 (FIG. 11e). […] Reduction of sul-2 improves aging associated diseases in C. elegans Aging is considered the main risk factor for the onset of neurodegenerative disorders like Parkinson, Huntington, or Alzheimer's diseases. These disorders are caused by the progressive decline of proteostasis, which results in protein aggregation that compromises cellular functions and finally causes cell death. Germline-deficient C. elegans delay the symptoms derived from the proteotoxicity of ectopically expressed human β-amyloid (βA). We tested if sul-2 mutations or STX64 treatment improves the symptoms of C. elegans models for neurodegenerative diseases.

[2] = system: GMC101 strain expressing human β-amyloid in muscle; experiment: Alzheimer's disease model: thermodependent paralysis of GMC101 strain; format: in vivo, C. elegans; details: 1 μg/ml, FIG. 3h, FIG. 4b
From the text: (§1) In this model, GFP-labelled dopaminergic neurons die due to α-synuclein toxicity. […] We also tested two different strains of Alzheimer's disease (AD) in worms, where immobility is caused by expression of βA protein in muscle cells.

[3] = system: CL2006 strain expressing human β-amyloid in muscle; experiment: Alzheimer's disease model: paralysis with age of CL2006 strain; format: in vivo, C. elegans; details: Log-rank (Mantel-Cox) test p=0.007, FIG. 12g
From the text: as §1

[4] = system: daf-2(e1370); experiment: Developmental arrest (dauer / L1) at 25° C.; format: in vivo, C. elegans; details: daf-2(e1370) background
Procedure: Worms were growth at 16° C. until L4, then shifted to 25° C. considering this Day 0 of adulthood. The pumping was counted under the Leica stereoscope at 100× magnification for 30 seconds. Data display from two independent biological assays (n=30 per day). Two-tailed Mann-Whitney t-test, ***p=0.0006. e Thrashing in sul-2(gk187) is similar to wild type but is slightly lower in sul-2 (pv17) at 25° C. on day 1 of adulthood. On day 6 at 25° of adulthood, the trashing on sul-2(gk187) is lower than wild type and sul-(pv17), with no differences among these last strains. The population of sul-2(gk17) at day 6 seems to distribute into two different populations, one with almost no thrashing and other with values similar to wild type a sul-2(pv17). […] In this condition, all animals from daf-2(e1370); sul-2(pv17) double mutants arrest at L1 stage. Similarly, more than 50% of animals arrest in L1 stage in daf-2(m577); sul-2(pv17) background, while none of the single mutants show this phenotype. i Example of sul-2(pv17) larvae, dauer larval arrest of daf-2(e1370) or L1 arrest of daf-2(e1370); sul-2 (pv17) and daf-2(e1370); sul-2(gk187) at 25° C. Animals were grown up to L4 at 16° C., then shifted at 25° C., progeny were scored or imaged after 72 hours. Photographs were taken in a Leica scope.

[5] = system: wild type mice injected with β-amyloid oligomers in the hippocampus; experiment: Passive avoidance test after intrahippocampal βA oligomers infusion (acute AD model); format: in vivo
From the text: (§2) As STX64 ameliorated neurodegeneration in C. elegans models, we tested the effect of this drug on cognitive alterations provoked by intrahippocampal βA oligomers infusion, an acute AD mammalian model (FIG. 3i). […] To evaluate the effect of STX64 oral treatment on amyloid pathology in a chronic AD mice model, we assessed the effect of 3-4 weeks of STX64 oral treatment on amyloid deposition in the neocortex (the cerebral cortex and the hippocampus) of >15-month-old APP-PS1 mice (FIG. 4k). […] We wondered if this histological improvement correlated with amelioration of cognitive behavioural deficit. For that, we compared cognition capacities in APP-PS1 mice older than 15-month-old treated with vehicle or STX64 for 3-4 weeks.
(§3) The first, object recognition, after training with identical objects, tests the ability to identify different objects exposed together with a familiar one. When this happens, the object discrimination index is positive and higher than 0.1. […] For this purpose, during training, the entry latency to the preferred site is established and the aversive stimulus is administered.

[6] = system: APP-PS1 mice; experiment: β-amyloid deposition in frontal cortex and hippocampus (chronic AD model); format: in vivo; details: 3-4 weeks oral
From the text: as §2

[7] = system: APP-PS1 mice; experiment: Passive avoidance test in APP-PS1 mice; format: in vivo; details: APP-PS1 mice older than 15-month-old; 3-4 weeks oral
From the text: as §2, §3

[8] = system: aged mice; experiment: Cognition of aged mice under STX64 treatment (FIG. 16-19, headline); format: in vivo
[9] = system: aged mice; experiment: Object recognition test in aged mice; format: in vivo
Procedure: as §3

[10] = system: 16-month-old mice; experiment: Open Field test; format: in vivo; details: FIG. 20; for habituation ability: aged animals, Open Field 15 minutes
Procedure: (§4) The “Open Field” is a test where the mouse must explore an unknown space for 15 minutes. In this test, both mobility and habituation (cognitive parameter that measures the individual's ability to recognize the environment) can be studied. On the other hand, the “Y maze” test is a test where the mouse explores the maze for 6 minutes. This test evaluates the distance traveled as a measure of mobility and the ability to visit triplets of arms without repeating any of them as a sign of immediate memory.

[11] = system: 16-month-old mice; experiment: Y maze test; format: in vivo; details: aged animals, Y maze 6 minutes, FIG. 20
Procedure: as §4

SMILES: NS(=O)(=O)Oc1ccc2c3c(c(=O)oc2c1)CCCCC3 [STX64]
- mobility with age [1]: reduce mobility with age at a slower rate; also recorded: significantly improved mobility; also recorded: protective effect
- paralysis phenotype [2]: the paralysis phenotype is ameliorated; also recorded: delayed paralysis
- paralysis with age [3]: delayed paralysis; also recorded: ameliorated
- L1 arrest [4]: phenocopies other sul-2 mutant phenotypes; also recorded: mainly arrests in L1
- L1 arrest ([4]; listed as STX 64): increase of L1 arrest
- cognitive deficiencies, passive avoidance test ([5]; local (intrahippocampal) administration): reverted the cognitive deficiencies
- cognitive deficiencies, passive avoidance test ([5]; systemic (oral) administration): reverted the cognitive deficiencies
- βA deposition compared with un-treated APP-PS1 mice of 10-12 months of age ([6]; APP-PS1 mice older than 15 months): reduces βA deposition
- βA immunoreactive area ([6]; frontal cortex and hippocampus, >15-month-old APP-PS1 mice): reduced in both tissues
- βA plaque density ([6]; frontal cortex and hippocampus, >15-month-old APP-PS1 mice, 0.005 mg/ml in drink water): significant reduction
- βA plaque size ([6]; frontal cortex, >15-month-old APP-PS1 mice, 0.005 mg/ml in drink water): significant reduction
- cognitive deficiencies, passive avoidance test [7]: completely reverted cognitive deficiencies
- cognition ([8]; 1-month treatment in 18 months old mice, 19 months when assayed, FIG. 18): improves cognition
- cognition ([8]; 3-month treatment in 18 months old mice, 21 months when assayed, FIG. 19): improves cognition
- cognition ([8]; 3 months treatment in 15 months old mice, FIG. 16): improves cognition
- cognition ([8]; 6 months treatment in 15 months old mice, 21 months when assayed, FIG. 17): improves cognition
- object recognition ([9]; 3-month treatment in 18 months old mice, FIG. 19B): is improved
- object recognition ([9]; 3 months treatment in 15 months old mice, FIG. 16B): is improved
- object recognition ([9]; 6 months treatment in 15 months old mice, FIG. 17B): is improved
- learning and memory, object recognition test ([9]; aged mice, vs vehicle-treated, FIG. 21, listed as STX): showed significantly both learning (STM) and ability to store information (memory); also recorded: significant improvement in both learning (STM) and ability to store information (memory)
- motor ability (mobility) ([10]; 16-month-old mice, Open Field mobility and Y maze distance traveled): tend to improve
- habituation ability [10]: tend to improve
- habituation ability ([10]; listed as STX): are improved
- immediate memory [11]: tend to improve
- immediate memory ([11]; listed as STX): are improved

Reference: US20240108637A1, “EPITE[…] AND/OR A STEROID SULFATASE INHIBITOR FOR USE IN TREATING OR IMPROVING AGE RELATED COGNITIVE IMPAIRMENT” (U[…] DE OLAVIDE, priority 2020, published 2024)
